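Compound exposure: 48 hours, 5 concentrations, 96-well plates. Here, GI50 denotes the concentration required for 50% inhibition of growth.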 The source made the active and inactive calls. Cut-off read from the data, not from the text of the source: active = GI50 up to about 1.1 µM and inactive = higher.
How the values were obtained:
Test in all cases: inhibition of tumour cell growth, NCI panel, 48 h
UO-31 = test system: UO-31
UACC-62 = test system: UACC-62
MCF7 = test system: MCF7
SF-539 = test system: SF-539
HCT-15 = test system: HCT-15
U-251 = test system: U-251
SNB-75 = test system: SNB-75
786-0 = test system: 786-0
ACHN = test system: ACHN
SR = test system: SR
PC-3 = test system: PC-3
LOX IMVI = test system: LOX IMVI
A498 = test system: A498
UACC-257 = test system: UACC-257
OVCAR-5 = test system: OVCAR-5
MDA-MB-435 = test system: MDA-MB-435
HCT-116 = test system: HCT-116
HL-60 = test system: HL-60
SK-OV-3 = test system: SK-OV-3
RXF 393 = test system: RXF 393

Measured: GI50

CC(C)(C)OC(=O)N1CCC(NC(=O)NC2CCN(C(=O)OC(C)(C)C)CC2)CC1
> 100 µM: HCT-15
inactive: UO-31 > 100 µM | UACC-62 > 100 µM | MCF7 > 100 µM | SF-539 > 100 µM | U-251 > 100 µM | SNB-75 > 100 µM | 786-0 > 100 µM | ACHN > 100 µM | SR > 100 µM | PC-3 > 100 µM | LOX IMVI > 100 µM | A498 > 100 µM | UACC-257 > 100 µM | OVCAR-5 > 100 µM | MDA-MB-435 > 100 µM | HCT-116 > 100 µM | HL-60 > 100 µM

COc1ccc2c(c1)c(=Cc1ccc(N(C)C)cc1)c1cc(-c3ccccc3)[n+](C)n12
1.65 µM: HCT-15
inactive: ACHN 1.14 µM | A498 1.33 µM
active: UO-31 0.596 µM | UACC-62 0.698 µM | MCF7 0.327 µM | SK-OV-3 0.447 µM | RXF 393 0.41 µM | U-251 0.301 µM | SNB-75 0.00269 µM | 786-0 0.423 µM | SR 0.337 µM | PC-3 0.322 µM | LOX IMVI 0.374 µM | UACC-257 0.359 µM | OVCAR-5 0.875 µM | MDA-MB-435 0.369 µM | HCT-116 0.314 µM | HL-60 0.284 µM

CN(CCCN=C=S)CCCN1c2ccccc2CCc2ccccc21
1.49 µM: HCT-15
inactive: UO-31 1.62 µM | UACC-62 1.79 µM | MCF7 1.59 µM | SK-OV-3 1.63 µM | SF-539 1.76 µM | RXF 393 1.92 µM | U-251 1.81 µM | 786-0 1.64 µM | ACHN 1.75 µM | PC-3 1.69 µM | LOX IMVI 1.88 µM | A498 1.66 µM | UACC-257 2.03 µM | OVCAR-5 1.81 µM | MDA-MB-435 1.79 µM | HCT-116 1.71 µM | HL-60 1.94 µM
active: SR 0.456 µM

CC(C)(C)[Si](C)(C)OC1(CCc2ccccc2OS(=O)(=O)C(F)(F)F)CCCC=C1COCc1ccccc1 (centres undefined)
inactive: UACC-62 29.5 µM | MCF7 19.1 µM | SK-OV-3 > 100 µM | SF-539 > 100 µM | RXF 393 48.2 µM | U-251 5 µM | SNB-75 8.61 µM | 786-0 > 100 µM | ACHN 35.4 µM | SR 1.86 µM | PC-3 3.51 µM | LOX IMVI 4.31 µM | A498 66.4 µM | MDA-MB-435 > 100 µM | HCT-116 3.33 µM | HL-60 2.42 µM
12.5 µM: HCT-15

C=C(CBr)CCCOCc1ccccc1
inactive: UO-31 13.7 µM | UACC-62 18.7 µM | MCF7 30.5 µM | SK-OV-3 35.5 µM | SF-539 19.5 µM | U-251 34.7 µM | 786-0 36.6 µM | ACHN 14.1 µM | SR 31.3 µM | PC-3 19.7 µM | LOX IMVI 30.6 µM | A498 35.2 µM | UACC-257 33.9 µM | OVCAR-5 18.7 µM | MDA-MB-435 28.4 µM | HCT-116 41.6 µM | HL-60 23.5 µM
22 µM: HCT-15

Cc1cc2c(cc1C)[n+]([O-])c(C(=O)N1CCN(c3ccc([N+](=O)[O-])cc3)CC1)c(C)[n+]2[O-]
inactive: UO-31 28.5 µM | UACC-62 41.9 µM | MCF7 > 100 µM | SK-OV-3 18.2 µM | SF-539 17.7 µM | RXF 393 14.4 µM | U-251 11.9 µM | 786-0 14.3 µM | ACHN 2.84 µM | SR > 100 µM | PC-3 93.3 µM | LOX IMVI 90.2 µM | A498 27.2 µM | UACC-257 > 100 µM | OVCAR-5 62.8 µM | MDA-MB-435 > 100 µM | HCT-116 28.9 µM | HL-60 > 100 µM
77.6 µM: HCT-15

COC(=O)C1CCC(=O)N1C(c1ccc(OC)cc1)c1ccc2c(c1)OCO2 (centres undefined)
32.3 µM: HCT-15
inactive: UO-31 27.5 µM | UACC-62 32.7 µM | MCF7 36.7 µM | SK-OV-3 59.4 µM | SF-539 32.9 µM | U-251 39.4 µM | SNB-75 20.2 µM | 786-0 62.8 µM | ACHN 97.9 µM | SR 31 µM | PC-3 45.3 µM | LOX IMVI 50.4 µM | A498 58.6 µM | UACC-257 39.1 µM | OVCAR-5 50 µM | MDA-MB-435 7.01 µM | HCT-116 29 µM | HL-60 21.2 µM

Source: ChEMBL document CHEMBL1201862, “PubChem BioAssay data set” (2004)
